This series has as its system bovine gamma globulin (BGG). As to the kind of experiment: Viscosity of 280 mg/mL BGG formulations in 50 mM histidine HCl pH 6 with excipient, cone and plate viscometer (Examples 1, 2, 4-6). Type of series: physicochemical.

“And” between values parts separate entries of the source, which are not always exact repeats. Identical values can stand only once. Counter-ions that a name gives are not always drawn. Like-named read-outs stand apart in the source and are kept apart here.

As for `COc1cc(C(=O)[O-])ccc1O.[Na+]` [Vanillic acid, sodium salt], the Viscosity is, setting by setting: (excipient 25 mg/mL) 56 cP; (excipient 50 mg/mL) 50 cP. Moreover, the “Viscosity Reduction” value reads like this: (excipient 25 mg/mL) 29%; (excipient 50 mg/mL) 37%.
In the case of Arg-Lys [Dipeptide RK (Arg-Lys)], the Viscosity by setting is: (excipient 50 mg/mL) 53 cP; (excipient 100 mg/mL) 64 cP. In addition, the “Viscosity Reduction” value stood at 33% (excipient 50 mg/mL) and 19% (excipient 100 mg/mL).
For Arg-Arg [Dipeptide RR (Arg-Arg)] the same measures were 57 cP, 62 cP, 28% and 22%.
As to “dimethylcyclohexylammonium hydroxybenzoate [DMCHA-hydroxybenzoate]”, where the note is “excipient 67 mg/mL”, the Viscosity amounted to 46 cP and the “Viscosity Reduction” value turned out to be 42%. Under “excipient 92 mg/mL”, the Viscosity was determined as 42 cP and the “Viscosity Reduction” value turned out to be 47%.
As to `Nc1ccc(S(=O)(=O)[O-])cc1.[Na+]` [Sodium sulfanilate], under “excipient 44 mg/mL”, the Viscosity was determined as 49 cP and the “Viscosity Reduction” value stood at 38%. For the same compound, where the note is “excipient 96 mg/mL”, the Viscosity stood at 42 cP and the “Viscosity Reduction” value is listed as 47%.
Consider `Nc1ncnc2c1ncn2[C@@H]1O[C@H](COP(=O)(O)O)[C@@H](O)[C@H]1O` [Adenosine monophosphate], for which, where the note is “excipient 26 mg/mL”, the Viscosity is given as 47 cP and the “Viscosity Reduction” value is 41%. Further, for the setting “excipient 50 mg/mL”, the Viscosity stood at 66 cP and the “Viscosity Reduction” value turned out to be 16%.
Take Tyr-Glu [Dipeptide YE (Tyr-Glu)]: the Viscosity by setting is: (excipient 50 mg/mL) 55 cP; (excipient 100 mg/mL) 68 cP. The “Viscosity Reduction” value is, setting by setting: (excipient 50 mg/mL) 30%; (excipient 100 mg/mL) 14%.
As for `NC(C1CCCCC1)C1CCCCC1` [DCHMA-HCl, dicyclohexylmethylamine], where the note is “excipient 29 mg/mL”, the Viscosity worked out at 51 cP and the “Viscosity Reduction” value is listed as 35%. For the same compound, under “excipient 50 mg/mL”, the Viscosity was found to be 51 cP and the “Viscosity Reduction” value is 35%.
On to Leu-Glu [Dipeptide LE (Leu-Glu)], for which the Viscosity by setting is: (excipient 50 mg/mL) 72 cP; (excipient 100 mg/mL) 87 cP. Moreover, the “Viscosity Reduction” value was 9% (excipient 50 mg/mL) and −10% (excipient 100 mg/mL).
Turning to `O=C([O-])c1ccccc1.[Na+]` [Sodium benzoate], under “excipient 31 mg/mL”, the Viscosity is listed as 61 cP and the “Viscosity Reduction” value came out at 23%. For the same compound, for the setting “excipient 56 mg/mL”, the Viscosity turned out to be 62 cP and the “Viscosity Reduction” value came out at 22%.
On to `O=C([O-])c1ccccc1O.[Na+]` [Sodium salicylate], for which the Viscosity was 57 cP and 52 cP.
`CN1CCCC1=O` [N-Methyl-2-pyrrolidone]: where the note is “excipient 30 mg/mL”, the Viscosity turned out to be 45 cP and the “Viscosity Reduction” value amounted to 43%. Also, under “excipient 52 mg/mL”, the Viscosity came to 52 cP and the “Viscosity Reduction” value is on record as 34%.
Take Arg-Glu [Dipeptide RE (Arg-Glu)]: where the note is “excipient 50 mg/mL”, the Viscosity stood at 50 cP and the “Viscosity Reduction” value amounted to 37%. Further, for the setting “excipient 100 mg/mL”, the Viscosity is given as 66 cP and the “Viscosity Reduction” value amounted to 16%.
For Arg-Pro [Dipeptide RP (Arg-Pro)], in that order: 51 cP, 35%, 53 cP and 33%.

These data come from patent US11357857B2, “Excipient compounds for protein processing” (COMERA LIFE SCIENCES, INC., priority 2014, dated 2022).
